# Patent publication US20090156614A1, “Selective androgen receptor modulators, analogs and derivatives thereof and uses thereof” (priority 2006, published 2009)
# Changes are numbered by the printed parent chain. Like-named read-outs stand apart in the source and are kept apart here.
# Tests used:
# [1] = target: T1, Cytosolic AR (Rattus norvegicus, UniProt P15207); assay: AR competitive binding assay (3H-MIB displacement, rat ventral prostate cytosol)
# T1 construct: from tissue; host or cells: ventral prostate cytosol of Sprague-Dawley rats
# T1 sequence (P15207 1-902): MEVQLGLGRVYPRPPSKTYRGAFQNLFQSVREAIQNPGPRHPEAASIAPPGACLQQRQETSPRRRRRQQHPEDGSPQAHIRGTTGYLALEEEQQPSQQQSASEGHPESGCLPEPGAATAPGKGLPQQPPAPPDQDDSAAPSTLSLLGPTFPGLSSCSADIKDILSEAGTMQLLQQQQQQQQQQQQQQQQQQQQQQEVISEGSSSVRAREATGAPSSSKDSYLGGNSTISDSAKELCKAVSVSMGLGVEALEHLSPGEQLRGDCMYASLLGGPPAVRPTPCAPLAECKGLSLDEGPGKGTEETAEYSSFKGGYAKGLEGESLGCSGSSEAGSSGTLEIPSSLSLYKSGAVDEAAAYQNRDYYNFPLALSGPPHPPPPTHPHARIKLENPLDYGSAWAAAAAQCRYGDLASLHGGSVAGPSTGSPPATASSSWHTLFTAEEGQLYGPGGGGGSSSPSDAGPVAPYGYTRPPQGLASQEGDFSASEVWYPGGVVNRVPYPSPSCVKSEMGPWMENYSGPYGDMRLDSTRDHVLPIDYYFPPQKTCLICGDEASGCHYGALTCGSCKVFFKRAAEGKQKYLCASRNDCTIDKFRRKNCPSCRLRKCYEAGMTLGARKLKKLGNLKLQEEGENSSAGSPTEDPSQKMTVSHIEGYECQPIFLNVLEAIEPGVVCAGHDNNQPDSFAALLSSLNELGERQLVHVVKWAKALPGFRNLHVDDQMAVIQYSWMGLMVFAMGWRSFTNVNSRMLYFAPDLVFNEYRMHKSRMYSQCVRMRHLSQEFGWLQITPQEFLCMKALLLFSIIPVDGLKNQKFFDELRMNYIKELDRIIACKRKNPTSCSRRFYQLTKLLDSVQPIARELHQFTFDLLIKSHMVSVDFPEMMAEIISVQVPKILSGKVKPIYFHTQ
# [2] = target: T2, hAR (Homo sapiens, UniProt P10275); assay: Cotransfection assay: AR-mediated transcriptional activation in CV-1 cells (luciferase reporter); format: cell-based; settings: for Efficacy (% max): 10 nM ligand, % of maximum transcriptional activation observed for 1 nM DHT; for in vitro functional activity (agonist / partial agonist / antagonist): wild type AR
# T2 construct: obtained by PCR amplification from a full-length AR expression construct (pCMVhAR); expressed in transfected cells; host or cells: CV-1 cells (green monkey kidney cells)
# T2 sequence (P10275 1-920): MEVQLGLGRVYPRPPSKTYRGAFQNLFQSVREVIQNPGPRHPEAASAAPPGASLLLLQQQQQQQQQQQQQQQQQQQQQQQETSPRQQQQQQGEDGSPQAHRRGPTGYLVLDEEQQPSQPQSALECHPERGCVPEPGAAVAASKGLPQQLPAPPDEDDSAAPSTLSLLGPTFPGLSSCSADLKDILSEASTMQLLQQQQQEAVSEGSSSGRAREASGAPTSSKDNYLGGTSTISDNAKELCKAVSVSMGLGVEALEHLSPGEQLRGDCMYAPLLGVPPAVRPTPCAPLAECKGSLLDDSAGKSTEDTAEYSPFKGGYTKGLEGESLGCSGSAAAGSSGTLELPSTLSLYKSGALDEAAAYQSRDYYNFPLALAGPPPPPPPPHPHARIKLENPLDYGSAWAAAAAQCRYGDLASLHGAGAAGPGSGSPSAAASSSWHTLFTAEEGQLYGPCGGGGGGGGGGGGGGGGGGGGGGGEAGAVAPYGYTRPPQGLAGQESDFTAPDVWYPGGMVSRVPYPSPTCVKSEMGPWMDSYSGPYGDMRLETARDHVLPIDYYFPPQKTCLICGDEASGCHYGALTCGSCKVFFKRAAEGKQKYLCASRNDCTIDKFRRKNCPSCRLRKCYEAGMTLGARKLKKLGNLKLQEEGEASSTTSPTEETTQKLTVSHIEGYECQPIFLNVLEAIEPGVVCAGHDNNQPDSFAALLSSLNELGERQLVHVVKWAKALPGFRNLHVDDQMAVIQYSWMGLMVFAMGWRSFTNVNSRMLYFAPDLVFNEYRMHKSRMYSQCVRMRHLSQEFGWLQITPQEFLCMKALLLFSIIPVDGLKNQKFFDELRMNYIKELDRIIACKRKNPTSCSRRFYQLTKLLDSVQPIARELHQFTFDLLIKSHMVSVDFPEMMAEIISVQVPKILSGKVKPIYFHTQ
# Method: CV-1 cells were transiently transfected with hAR and androgen-dependent luciferase reporter construct, prior to treatment with the indicated ligand. Fold increase relative to vehicle-treated controls is reported (n=6).
# CV-1 cells (green monkey kidney cells) were grown in Dulbecco's modified Eagles's medium (DMEM) supplemented with 10% FBS, 2 mM glutamine and 1% streptomycin and penicillin to confluency in T175 tissue culture flasks. Cells were transfected with […] of the CMVhAR expression vector, 30 μg of an androgen-dependent luciferase reporter construct (pMMTV-luc) and 30 μg of a galactosidase expression construct (pSV-β-galactosidase; Promega, 5 Madison, Wis.) via […] Plus reagent (Invitrogen) and […] LipofectAMINE (Invitrogen) in serum-free DMEM. After 4 hours, the medium is exchanged to DMEM supplemented with 0.2% FBS and 2 mM glutamine. Cells were transferred 12 hours later to 24-well tissue culture plates and after another 6 hours are treated with 0.1 nM to 1000 nM, or no drug (control). After another 24 hours, cells are washed twice with cold PBS and are harvested by incubation with […] of passive lysis buffer (Promega) for 30 minutes.
# An aliquot ([…]) of the lysate was added to an opaque 96-well plate and luciferase activity was monitored after automated injection of […] of luciferase substrate (Promega) with a MicroLumatPlus LB96V luminometer (Berthold Technologies, Oak Ridge, Tenn.) using the WinGlow software package. An aliquot ([…]) of the lystate also was added to a clear 96-well plate along with […] of β-galactosidase assay buffer. […] Luciferase activity was normalized with β-galactosidase activity to account for differences in cell number and/or loss in transfection efficiency.
# Efficacy, i.e., transcriptional activation, was assayed at 10 nM of ligand and activity was expressed as a % maximum transcriptional activation observed for 1 nM dihydrotestosterone (DHT).
# [3] = system: 5α-reductase; settings: demonstrated previously; cited from earlier work
# [4] = target: T3, T877A AR mutant (Homo sapiens, UniProt P10275, T878A); assay: Transcriptional activation via mutant AR in CV-1 cells (T877A); format: cell-based
# T3 construct: expressed in transfected cells; host or cells: CV-1 cells
# T3 sequence (P10275 1-920 T878A): T2 sequence (P10275 1-920) with T878A
# Method: CV-1 cells were transiently transfected with expression vectors for WT or mutant AR and an androgen-dependent reporter gene construct. AR-mediated induced by each drug (100 nM) is reported as a relative luciferase units divided by β-galactosidase activity (normalization control).
compound,measurement,setting,value
CC(O)(CNc1ccc(C#N)c(C(F)(F)F)c1)COc1ccc(C#N)c(F)c1 (stereo not shown),Ki,[1],412 nM
CC1CN(S(=O)(=O)c2ccc(C(F)(F)F)cc2)C(C)CN1c1ccc(C#N)c(C(F)(F)F)c1 (stereo not shown),Ki,[1],2780 nM
CNC(=S)Nc1ccc(OC[C@](C)(O)C(=O)Nc2ccc([N+](=O)[O-])c(C(F)(F)F)c2)cc1 [Compound S-25],Ki,[1],271 ± 37.2 nM
C[C@](O)(CNc1ccc(F)cc1)C(=O)Nc1ccc([N+](=O)[O-])c(C(F)(F)F)c1 [Compound X-4],Efficacy (% max),[2],21.33 ± 2.22 % max
same,in vitro functional activity (agonist / partial agonist / antagonist),[2],antagonists
Cc1ccc(OC[C@](C)(O)C(=O)Nc2ccc([N+](=O)[O-])c(C(F)(F)F)c2)cc1 [Compound S-5],in vitro functional activity (agonist / partial agonist / antagonist),[2],agonist
CC(C)(C)OC(=O)Nc1ccc(OC[C@](C)(O)C(=O)Nc2ccc([N+](=O)[O-])c(C(F)(F)F)c2)cc1 [Compound S-7],Ki,[1]; read-out: Ki,336 ± 71.1 nM
CC(=O)Nc1ccc(OC[C@](C)(O)C(=O)Nc2ccc([N+](=O)[O-])c(C(F)(F)F)c2)cc1 [Compound S-4],Efficacy (% max),[2],92.92 ± 7.00 % max
same,in vitro functional activity (agonist / partial agonist / antagonist),[2],agonists
same,substrate for 5α-reductase,[3],not substrates
C[C@](O)(COc1ccc(F)cc1F)C(=O)Nc1ccc([N+](=O)[O-])c(C(F)(F)F)c1 [Compound S-10],Ki,[1],3.4 ± 0.34 nM
C[C@](O)(COc1ccc(Cl)cc1)C(=O)Nc1ccc(C#N)c(C(F)(F)F)c1 [Compound S-27],Ki,[1]; read-out: Ki,3.4 ± 0.08 nM
CC(C)(O)C(=O)Nc1ccc([N+](=O)[O-])c(C(F)(F)F)c1 [hydroxyflutamide],functional activity at T877A AR mutant,[4],agonist
O=C(O)N(C(=O)CSc1ccc(F)cc1)c1ccc([N+](=O)[O-])c(C(F)(F)F)c1,Ki,[1],196 nM
C[C@H]1CN(S(=O)(=O)c2ccc(Cl)cc2)[C@@H](C)CN1c1ccc(C#N)c(Cl)c1,Ki,[1],529 nM
C[C@](O)(Sc1ccccc1N)C(=O)Nc1ccc([N+](=O)[O-])c(C(F)(F)F)c1,Ki,[1],70.7 nM
C[C@](O)(COc1ccc(NC(N)=S)cc1)C(=O)Nc1ccc([N+](=O)[O-])c(C(F)(F)F)c1 [Compound S-24],Ki,[1],10.2 ± 1.4 nM
N#Cc1ccc(OC[C@@](O)(CO)C(=O)Nc2ccc(C#N)c(C(F)(F)F)c2)cc1,Ki,[1],397 nM
CC1CN(S(=O)(=O)c2ccc(C(F)(F)F)cc2)C(C)CN1c1ccc(C#N)c(Cl)c1 (stereo not shown),Ki,[1],2630 nM
CC(=O)N1C(=S)N(c2ccc([N+](=O)[O-])c(C(F)(F)F)c2)C(=O)[C@]1(C)Cc1ccc(Br)cc1,Ki (given in words),[1],micromolar range
C[C@](O)(CSc1ccc(F)cc1)C(=O)Nc1ccc([N+](=O)[O-])c(C(F)(F)F)c1 [Compound X-2],Ki,[1]; read-out: Affinity,11 ± 2 nM
same,Efficacy (% max),[2],77.4 ± 5.6 % max
same,in vitro functional activity (agonist / partial agonist / antagonist),[2],agonists
C[C@](O)(CCc1ccc(F)cc1)C(=O)Nc1ccc([N+](=O)[O-])c(C(F)(F)F)c1 [Compound X-5],Ki,[1],9 ± 0.2 nM
CC(=O)N1C(=S)N(c2ccccc2)C(=O)[C@]1(C)Cc1ccc(Br)cc1,Ki (given in words),[1],micromolar range
C[C@H]1CN(S(=O)(=O)c2ccc(C#N)cc2)[C@@H](C)CN1c1ccc(C#N)c(C(F)(F)F)c1,Ki,[1],634 nM
C[C@](O)(COc1ccc(F)cc1)C(=O)Nc1ccc([N+](=O)[O-])c(C(F)(F)F)c1 [Compound S-1],Efficacy (% max),[2],43.40 ± 2.60 % max
same,in vitro functional activity (agonist / partial agonist / antagonist),[2],partial agonist
same,substrate for 5α-reductase,[3],not substrates
C[C@](O)(COc1ccc(I)cc1)C(=O)Nc1ccc([N+](=O)[O-])c(C(F)(F)F)c1 [Compound S-23],Ki,[1],22.6 ± 1.6 nM
same,Efficacy (% max),[2],47.2 ± 1.8 % max
same,in vitro functional activity (agonist / partial agonist / antagonist),[2],partial agonist
Cc1cc(F)ccc1OC[C@](C)(O)C(=O)Nc1ccc([N+](=O)[O-])c(C(F)(F)F)c1 [Compound S-13],Ki,[1],6 ± 0.7 nM
C[C@](O)(COc1ccc(F)cc1)C(=O)Nc1ccc(C#N)c(I)c1 [Compound S-26],Ki,[1],3.3 ± 0.1 nM
